How the values were obtained:
Type in all cases: ADME, Microsome
Liver microsomes [1] = test: Metabolic stability in rat liver microsomes assessed as covalent binding at 10 uM after 1 hr by scintillation counting in absence of NADPH
Liver microsomes [2] = test: Metabolic stability in rat liver microsomes assessed as covalent binding at 10 uM after 1 hr by scintillation counting in presence of glutathione
Liver microsomes [3] = test: Metabolic stability in human liver microsomes assessed as covalent binding at 10 uM after 1 hr preincubated for 15 mins with NADPH by scintillation counting
Liver microsomes [4] = test: Metabolic stability in human liver microsomes assessed as covalent binding at 10 uM after 1 hr by scintillation counting in absence of NADPH
Liver microsomes [5] = test: Metabolic stability in rat liver microsomes assessed as covalent binding at 10 uM after 1 hr preincubated for 15 mins with NADPH by scintillation counting

Stability (Liver microsomes [1]): 0 pmolequiv/mg
Stability (Liver microsomes [2]): 50 pmolequiv/mg
Stability (Liver microsomes [3]): 715 pmolequiv/mg
Stability (Liver microsomes [4]): 10 pmolequiv/mg
Stability (Liver microsomes [5]): 378 pmolequiv/mg
Structure (SMILES): C[C@@H](CO)Oc1cc(Oc2ccc(S(C)(=O)=O)cc2)cc(C(=O)Nc2nccs2)c1

Source: ChEMBL document CHEMBL1154966, “Metabolic activation of N-thiazol-2-yl benzamide as glucokinase activators: Impacts of glutathione trapping on covalent binding” (Bioorg Med Chem Lett, 2010)
